Measured values as given in patent publication US20100113510A1 (priority 2006, published 2010).

molecular target: T1, human muscarinic acetylcholine M3 receptor (M3-ACh) (Homo sapiens, UniProt P20309); assay: biochemical; format: binding; conditions: pIC50
T1 construct: expressed in transfected cells; host or cells: CHO-K1 (Chinese Hamster Ovary) cell membranes
T1 sequence (P20309 whole entry): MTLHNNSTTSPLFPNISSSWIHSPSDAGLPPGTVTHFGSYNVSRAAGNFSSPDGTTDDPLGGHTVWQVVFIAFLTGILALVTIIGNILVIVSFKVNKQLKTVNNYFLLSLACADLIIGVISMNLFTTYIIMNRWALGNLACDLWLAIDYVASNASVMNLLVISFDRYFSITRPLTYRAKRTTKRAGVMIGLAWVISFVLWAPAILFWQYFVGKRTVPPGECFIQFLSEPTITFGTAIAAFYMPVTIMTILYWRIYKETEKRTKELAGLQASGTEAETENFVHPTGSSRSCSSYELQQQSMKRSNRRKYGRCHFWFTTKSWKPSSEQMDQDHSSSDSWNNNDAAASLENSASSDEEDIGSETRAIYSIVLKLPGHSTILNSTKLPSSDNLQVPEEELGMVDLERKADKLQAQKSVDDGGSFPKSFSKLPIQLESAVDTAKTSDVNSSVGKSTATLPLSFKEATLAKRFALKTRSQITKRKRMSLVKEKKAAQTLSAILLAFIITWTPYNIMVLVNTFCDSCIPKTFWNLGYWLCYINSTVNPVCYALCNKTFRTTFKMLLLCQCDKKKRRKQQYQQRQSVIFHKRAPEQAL

Structure (SMILES) | IC50 [nM]
CC(C(=O)O[C@H]1C[N+]2(CC(=O)Nc3ccon3)CCC1CC2)(c1ccccc1)N1CCCCCC1 (single isomer, unassigned) [Example 90] | 0.631

same assay, conditions: pIC50 (M3 Binding IC50 classes)

Structure (SMILES) | IC50 [nM]
CC(C(=O)O[C@H]1C[N+]2(Cc3cc(-c4ccccc4)no3)CCC1CC2)(c1cccs1)N1CCSCC1 (single isomer, unassigned) [Example 55] | 2 to 10
CC(C(=O)O[C@H]1C[N+]2(CC(=O)Nc3ccc(Cl)nn3)CCC1CC2)(c1cccs1)N1CCCCC1 (single isomer, unassigned) [Example 72] | < 2
CC(C(=O)O[C@H]1C[N+]2(CC(=O)Nc3cccnn3)CCC1CC2)(c1ccccc1)N1CCSCC1 (single isomer, unassigned) [Example 101] | < 2
C[C@@](C(=O)O[C@H]1C[N+]2(CC(=O)Nc3ccc4ncnn4c3)CCC1CC2)(c1ccccc1)N1CCCCC1 [Example 13, (3R)-1-[2-Oxo-2-([1,2,4]triazolo[1,5-a]pyridin-6-ylamino)ethyl]-3-{[(2S)-2-phenyl-2-piperidin-1-ylpropanoyl]oxy}-1-azoniabicyclo[2.2.2]octane chloride] | < 2
Cn1c(=O)oc2cc(CC[N+]34CCC(CC3)[C@@H](OC(=O)[C@](C)(c3ccccc3)N3CCCCC3)C4)ccc21 [Example 25, (3R)-1-[2-(3-Methyl-2-oxo-2,3-dihydro-1,3-benzoxazol-6-yl)ethyl]-3-{[(2S)-2-phenyl-2-piperidin-1-ylpropanoyl]oxy}-1-azoniabicyclo(2.2.2]octane bromide] | < 2
CC(C(=O)O[C@H]1C[N+]2(CCCOc3ccccc3)CCC1CC2)(c1ccccc1)N1CCCCCC1 (single isomer, unassigned) [Example 97] | < 2
COc1cccc(C(=O)C[N+]23CCC(CC2)[C@@H](OC(=O)[C@](C)(c2ccccc2)N2CCCCC2)C3)c1 [Example 8, (3R)-1-[2-(3-Methoxyphenyl)-2-oxoethyl]-3-{[(2S)-2-phenyl-2-piperidin-1-ylpropanoyl]oxy}-1-azoniabicyclo[2.2.2]octane bromide] | < 2
Cc1cnc(NC(=O)C[N+]23CCC(CC2)[C@@H](OC(=O)C(C)(c2cccs2)N2CCCCC2)C3)cn1 (single isomer, unassigned) [Example 76] | < 2
CC(C(=O)O[C@H]1C[N+]2(CCc3cccc(Cl)c3)CCC1CC2)(c1ccccc1)N1CCOCC1 (single isomer, unassigned) [Example 80] | 2 to 10
CC(C(=O)O[C@H]1C[N+]2(CC(=O)Nc3cnccn3)CCC1CC2)(c1cccs1)N1CCSCC1 (single isomer, unassigned) [Example 54] | < 2
CC(C(=O)O[C@H]1C[N+]2(CCc3ccccc3)CCC1CC2)(c1ccccc1)N1CCCCCC1 (single isomer, unassigned) [Example 93] | < 2
CC(C(=O)O[C@H]1C[N+]2(CCc3cccc(F)c3)CCC1CC2)(c1ccccc1)N1CCCCCC1 (single isomer, unassigned) [Example 92] | < 2
CC(C(=O)O[C@H]1C[N+]2(Cc3nc(-c4ccccc4)no3)CCC1CC2)(c1cccs1)N1CCSCC1 (single isomer, unassigned) [Example 56] | < 2
CC(C(=O)O[C@H]1C[N+]2(CCCc3ccccc3)CCC1CC2)(c1ccccc1)N1CCSCC1 (single isomer, unassigned) [Example 104] | < 2
CC(C(=O)O[C@H]1C[N+]2(CC(=O)Nc3ccccc3)CCC1CC2)(c1ccccc1)N1CCCCCC1 (single isomer, unassigned) [Example 89] | < 2
CC(C(=O)O[C@H]1C[N+]2(CCc3cccc(F)c3)CCC1CC2)(c1cccs1)N1CCSCC1 (single isomer, unassigned) [Example 51] | < 2
CC(C(=O)O[C@H]1C[N+]2(CC(=O)Nc3cccc(F)c3)CCC1CC2)(c1ccccc1)N1CCCCCC1 (single isomer, unassigned) [Example 88] | < 2
CC(C(=O)O[C@H]1C[N+]2(CCCc3ccccc3)CCC1CC2)(c1ccccc1)N1CCSCC1 (single isomer, unassigned) [Example 105] | 2 to 10
CC(C(=O)O[C@H]1C[N+]2(CCCc3cccnc3)CCC1CC2)(c1ccccc1)N1CCSCC1 (single isomer, unassigned) [Example 106] | 2 to 10
C[C@@](C(=O)O[C@H]1C[N+]2(CC(=O)c3ccc(F)cc3F)CCC1CC2)(c1ccccc1)N1CCCCC1 [Example 5, (3R)-1-[2-(2,4-Difluorophenyl)-2-oxoethyl]-3-{[(2S)-2-phenyl-2-piperidin-1-ylpropanoyl]oxy}-1-azoniabicyclo[2.2.2]octane chloride] | 2 to 10
C[C@@](C(=O)O[C@H]1C[N+]2(CC(=O)c3cccc(F)c3)CCC1CC2)(c1ccccc1)N1CCCCC1 [Example 7, (3R)-1-[2-(3-Fluorophenyl)-2-oxoethyl]-3-{[(2S)-2-phenyl-2-piperidin-1-ylpropanoyl]oxy}-1-azoniabicyclo[2.2.2]octane bromide] | < 2
C[C@@](C(=O)O[C@H]1C[N+]2(CCCS(=O)(=O)c3ccc(C#N)cc3)CCC1CC2)(c1ccccc1)N1CCCCC1 [Example 35, (3R)-1-{3-[(4-Cyanophenyl)sulfonyl]propyl}-3-{[(2S)-2-phenyl-2-piperidin-1-ylpropanoyl]oxy}-1-azoniabicyclo[2.2.2]octane bromide] | 2 to 10
C[C@@](C(=O)O[C@H]1C[N+]2(CC(=O)Nc3ccc4[nH]ncc4c3)CCC1CC2)(c1ccccc1)N1CCCCC1 [Example 12, (3R)-1-[2-(1H-Indazol-5-ylamino)-2-oxoethyl]-3-{[(2S)-2-phenyl-2-piperidin-1-ylpropanoyl]oxy}-1-azoniabicyclo[2.2.2]octane chloride] | 2 to 10
Cc1nc(-c2ccccc2)c(NC(=O)C[N+]23CCC(CC2)[C@@H](OC(=O)[C@](C)(c2ccccc2)N2CCCCC2)C3)s1 [Example 18, (3R)-1-{2-[(2-Methyl-4-phenyl-1,3-thiazol-5-yl)amino]-2-oxoethyl}-3-{[(2S)-2-pheny1-2-piperidin-1-ylpropanoyl]oxy}-1-azoniabicyclo[2.2.2]octane chloride] | 2 to 10
CC(C(=O)O[C@H]1C[N+]2(CC(=O)Nc3ccon3)CCC1CC2)(c1ccccc1)N1CCCCCC1 (single isomer, unassigned) [Example 90] | < 2
CC(C(=O)O[C@H]1C[N+]2(CCCc3ccccc3)CCC1CC2)(c1ccccc1)N1CCCCCC1 (single isomer, unassigned) [Example 94] | < 2
CC(C(=O)O[C@H]1C[N+]2(CC(=O)Nc3ccon3)CCC1CC2)(c1ccccc1)N1CCCCCC1 (single isomer, unassigned) [Example 111] | 2 to 10
C[C@@](C(=O)O[C@H]1C[N+]2(CC(=O)c3sccc3Cl)CCC1CC2)(c1ccccc1)N1CCCCC1 [Example 4, (3R)-1-[2-(3-Chloro-2-thienyl)-2-oxoethyl]-3-{[(2S)-2-phenyl-2-piperidin-1-ylpropanoyl]oxy}-1-azoniabicyclo[2.2.2]octane bromide] | 2 to 10
CC(C(=O)O[C@H]1C[N+]2(CCOCc3ccc(Cl)cc3)CCC1CC2)(c1ccccc1)N1CCSCC1 (single isomer, unassigned) [Example 108] | 2 to 10

same assay, conditions: read-out: pIC50 (M3 Binding IC50 classes) (converted)

Structure (SMILES) | IC50 [nM]
CC(C(=O)O[C@H]1C[N+]2(CCCc3ccccc3)CCC1CC2)(c1ccccc1)N1CCCCCC1 (single isomer, unassigned) [Example 95] | < 2
